# Patent US9434976B2, “Modification of sample preparation to differentiate live and dead bacteria by polymerase chain reaction assay” (priority 2013, dated 2016)
# “Also recorded” adds a separate entry of the source. Read-outs that look alike come from different tables or passages of the source.
# Columns and labels:
# Listeria monocytogenes = assay: Real time PCR of live, heat-killed or isopropyl alcohol-killed L. monocytogenes after treatment with a DNA-binding chemical; format: cell-based; details: for Blocking of amplification of DNA from dead bacteria: dead L. monocytogens; for PCR product from live versus killed L. monocytogenes: Gel Red 3x stock
# Description: (§1) Various amounts of Gel Red™ can be added to the isolated microbe. Originally the GelRed™ is available at 10,000× solution in water or 3× staining solution in H2O (working solution). The base for the concentration calculation refers to working solution or 3×. In FIGS. 2-4 various dilutions were reported (1:1, 1:10 and 1:100). “1:1” means where 1.0 μl of commercially available Gel Red™ at 3× is diluted in 1.0 μl diluent (such as water). “1:10” means where 1.0 μl of commercially available Gel Red™ at 3× is diluted in 10.0 μl diluent (such as water). “1:100” means where 1.0 μl of commercially available Gel Red™ at 3× is diluted in 100.0 μl diluent (such as water).
# (§2) Bacterial species included in these experiments were E. coli, L. monocytogens, and S. Typhimurium. Fresh culture was suspended in a buffer and placed in three tubes (live bacteria, heat-killed and isopropanol-killed bacteria). The first tube contained live bacteria without treatment, and the second and the third tube were inactivated by heat and isopropanol, respectively. The DNA-intercalating chemicals used in this experiment were PMA, EMA and other DNA-binding chemicals, which were not previously reported. The experiments were performed to study the application of sample modification with DNA-binding chemicals to enable PCR to amplify samples only from viable bacteria. […] The bacterial sample was modified with PMA or combined with high voltage light exposure to assess the combined treatment effect.
# (§3) A sample containing L. monocytogenes was tested. One sample included live L. monocytogenes. Another sample included heat killed L. monocytogenes and another sample contained isopropyl alcohol killed L. monocytogenes. In FIG. 3, Compound CE stands for Gel Red™. Real time PCR was run on the samples.
# In this reaction, the amplification was run using primers that targeted the Hly 9125 gene (which encodes listeriolysin O protein).
# Salmonella Typhimurium = assay: Real time PCR of live, heat-killed or isopropyl alcohol-killed Salmonella Typhimurium after treatment with a DNA-binding chemical; format: cell-based; details: for Blocking of amplification of DNA from dead bacteria: dead S. typhimurium; for PCR product from live versus killed Salmonella Typhimurium: Gel Red 3x stock
# Description: as §1, §2
# as §3, with “Salmonella Typhimurium” for “L. monocytogenes”, “Salmonella Typhimurium.” for “L. monocytogenes.”, “4,” for “3,”
# In this reaction, the amplification was run using primers that targeted the ycdC gene (which encodes a putative transcriptional repressor protein).
# Escherichia coli 0157:H7 = assay: Real time PCR of live, heat-killed or isopropyl alcohol-killed E. coli after treatment with a DNA-binding chemical; format: cell-based; details: for Blocking of amplification of DNA from dead bacteria: dead E. coli; for Penetration into E. coli and blocking of PCR amplification: recommended concentration; for PCR amplification product from live versus killed E. coli: Gel Red 3x stock
# Description: as §1, §2
# A sample containing E. coli was tested. One sample included live E. coli. Another sample included heat killed E. coli and another sample contained isopropyl alcohol killed E. coli. In FIG. 2, Compound CE stands for Gel Red™. Real time PCR was run on the samples. […] The Gel Red™ was too highly concentrated that it penetrated all of E. coli even in the “live sample. […] The Gel Red™ was too weak to get into the intact cell membrane of the live E. coli.
# In this reaction, the amplification was run using primers that targeted the per gene (which encodes perosamine synthetase).
# [1] = cited from earlier work
# bacterial sample = assay: PMA sample modification combined with high voltage light exposure, PCR; format: cell-based
# Source text: as §2
# [2] = cited from earlier work; remark: listed apart in the source
# [3] = concentrations well above the working concentrations used in gel staining
compound,measurement,setting,value
"CC[N+](C)(CC)CCC[n+]1c(-c2ccccc2)c2cc(N=[N+]=[N-])ccc2c2ccc(N)cc21 [PMA, propidium monoazide]",Blocking of amplification of DNA from dead bacteria,Listeria monocytogenes,completely blocks the amplification of DNA from dead; also recorded: can block the amplification of DNA from dead bacteria
same,Blocking of amplification of DNA from dead bacteria,Salmonella Typhimurium,completely blocks the amplification of DNA from dead; also recorded: can block the amplification of DNA from dead bacteria
same,Blocking of amplification of DNA from dead bacteria,Escherichia coli 0157:H7,completely blocks the amplification of DNA from dead; also recorded: can block the amplification of DNA from dead bacteria
same,Penetration into E. coli and blocking of PCR amplification,Escherichia coli 0157:H7,penetrates only live E. coli
same,Cytotoxicity (Description),[1]; Table 1,substantially lower
same,Effect of PMA combined with light exposure compared with PMA only,bacterial sample,not much different from using only PMA
ethidium monoazide bromide [EMA],Blocking of amplification of DNA from dead bacteria,Listeria monocytogenes,can block the amplification of DNA from dead bacteria
same,Blocking of amplification of DNA from dead bacteria,Salmonella Typhimurium,can block the amplification of DNA from dead bacteria
same,Blocking of amplification of DNA from dead bacteria,Escherichia coli 0157:H7,can block the amplification of DNA from dead bacteria
same,Penetration into E. coli and blocking of PCR amplification,Escherichia coli 0157:H7,penetrates only live E. coli
same,Harmfulness,[1]; Table 1,Potentially harmful
same,Solubility,[2]; Table 1,Soluble in DMF or EtOH.
"Nc1ccc2c(c1)c(-c1ccccc1)[n+](CCCCCC(=O)NCCCOCCOCCOCCCNC(=O)CCCCC[n+]1c(-c3ccccc3)c3cc(N)ccc3c3ccc(N)cc31)c1cc(N)ccc21.[I-].[I-] [Gel Red™, 5, 5′-(6, 22-dioxo-11, 14, 17-trioxa-7, 21-diazaheptacosane-1, 27-diyl)bis(3,8-diamino-6-phenylphenanthridin-5-ium) iodide]",PCR product from live versus killed L. monocytogenes,Listeria monocytogenes; dilution 1:1,no PCR products
same,PCR product from live versus killed L. monocytogenes,Listeria monocytogenes; dilution 1:10,signal from live but not from killed samples
same,PCR product from live versus killed L. monocytogenes,Listeria monocytogenes; dilution 1:100,signal from live but not from killed samples
same,PCR product from live versus killed Salmonella Typhimurium,Salmonella Typhimurium; dilution 1:1,no PCR products
same,PCR product from live versus killed Salmonella Typhimurium,Salmonella Typhimurium; dilution 1:10,no PCR products
same,PCR product from live versus killed Salmonella Typhimurium,Salmonella Typhimurium; dilution 1:100,signal from live but not from killed samples
same,PCR amplification product from live versus killed E. coli,Escherichia coli 0157:H7; dilution 1:1,no PCR products even in the sample containing the live bacteria
same,PCR amplification product from live versus killed E. coli,Escherichia coli 0157:H7; dilution 1:10,signal from live but not from killed samples
same,PCR amplification product from live versus killed E. coli,Escherichia coli 0157:H7; dilution 1:100,"amplification products in all samples, including the killed bacteria samples"
same,Cytotoxicity (Description),[1]; Table 1,noncytotoxic.
same,Cytotoxicity,[1]; [3],noncytotoxic
same,Hazard,[1]; [3],nonhazardous
same,Mutagenicity,[1]; [3],nonmutagenic
same,Stability under normal light,"[2]; Table 1, normal light",light (photostable).
same,Stability,[2]; Table 1,stable
same,Stability,[2]; general statement,extremely stable
